In PubChem BioAssay (NCI):
Several values for one entry are separate records, joined by “and”; a condition that tells them apart may be missing. Identical values can stand only once.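 Cultured in 96-well plates, cells were exposed to test compound for 48 hours across five concentrations. The concentration for 50% growth inhibition is given as GI50. Definition used: TGI = concentration required for complete inhibition of growth.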

How the values were obtained:
Assay in all cases: NCI tumour cell line growth inhibition, 48 h
RXF-631 renal = test system: RXF-631 renal
LXFL 529 NSCLC = test system: LXFL 529 NSCLC
HOP-18 NSCLC = test system: HOP-18 NSCLC
DMS 114 small cell lung = test system: DMS 114 small cell lung
DLD-1 colon = test system: DLD-1 colon
SN12K1 renal = test system: SN12K1 renal
P388/ADR leukemia = test system: P388/ADR leukemia
PC-3 prostate = test system: PC-3 prostate
MDA-N = test system: MDA-N
HS 578T breast = test system: HS 578T breast
P388 leukemia = test system: P388 leukemia
MCF7 breast = test system: MCF7 breast

| SMILES | TGI (RXF-631 renal) [µM] | TGI (LXFL 529 NSCLC) [µM] | TGI (HOP-18 NSCLC) [µM] | TGI (DMS 114 small cell lung) [µM] | TGI (DLD-1 colon) [µM] | further results |
| --- | --- | --- | --- | --- | --- | --- |
| O=C(CC1Sc2ccccc2NC1=O)Nc1ccc([N+](=O)[O-])cc1[N+](=O)[O-] (stereo not drawn) | 41.4 | 28.7 | 46 | 27.5 | 28.6 |  |
| CC(=O)OC1CC[C@@]2(C)C(CC(OC3OC(CO)C(O)C(O)C3O)[C@]3(C)C2CCC24CC23CC[C@H]4C(C)CC(O)[C@@H](O)C(C)(C)O)C1(C)C (stereo partly drawn) | > 50 | 16.1 | 41 | 20.6 | > 50 |  |
| Cc1cccc2c1NC(c1c(C)[nH]c3ccccc13)C2 (stereo not drawn) | > 100 | > 100 | > 100 | > 100 | > 100 |  |
| COC(=O)c1nc(N)[nH]c(=O)c1-c1ccc(Cl)cc1 | > 100 | > 100 |  | > 100 | > 100 |  |
| Cc1cc(C)cc(NC(=O)CCC(=O)C2CCC/C2=N\NC(=O)C(=O)NN)c1 (stereo not drawn) | > 100 | > 100 | > 100 | > 100 | > 100 |  |
| Cn1c(=O)c(C2c3ccccc3Oc3c2c(=O)n(C)c2ccccc32)c(O)c2ccccc21 (stereo not drawn) | > 100 | > 100 | > 100 | > 100 | > 100 |  |
| CC(C)(C)NC(=O)C12C3C4C1C1C2C3C41I (stereo not drawn) | > 100 | > 100 |  | > 100 |  |  |
| Nc1ncnc2c1ncn2C1OC(CO)C(O)C1O (stereo not drawn) |  |  | > 399 | > 437 | > 450 | TGI (SN12K1 renal): > 450 µM; TGI (P388/ADR leukemia): 144 µM; GI50 (PC-3 prostate): 1.44 µM; TGI (PC-3 prostate): > 100 µM and 12.8 µM; TGI (MDA-N): > 100 µM; GI50 (HS 578T breast): 16.2 µM; TGI (HS 578T breast): 54.4 µM; TGI (P388 leukemia): 111 µM |
| O=C1/C=C(/c2ccc(O)cc2)[C@H](O)Cc2ccc(OC3OC(CO)C(O)C(O)C3O)cc2O1 (stereo partly drawn) (tested in a mixture with another compound) | > 100 | > 100 |  | > 100 | > 100 |  |
| COc1ccc2c(c1)C(CCN)C(=O)N2 (stereo not drawn) | > 100 | > 100 | > 100 | > 100 | > 100 |  |
| Cc1cc(C)c(-c2noc(-c3ccc(Cl)cc3)c2C2=NCCN2)c(C)c1 | > 100 | 44.5 | > 100 |  | 75.9 |  |
| O=c1c2ccccc2oc2nccnc12 | > 100 | > 100 | > 100 | > 100 | > 100 |  |
| COC1=C(C(=O)OC(C)(C)C)C23CCCCC2(C(C(=O)OC(C)(C)C)=C(OC)C3C(=O)OC(C)(C)C)C1C(=O)OC(C)(C)C (stereo not drawn) | 35.3 | > 100 | > 100 | > 100 | > 100 |  |
| NNC(=S)N/N=C(\c1nc2ccc(Cl)cc2[nH]c1=O)C(O)c1ccc(Cl)cc1Cl (stereo not drawn) | > 100 | > 100 | > 100 | > 100 | > 100 |  |
| CC(=O)OCC1OC(n2c(-c3ccc(N)cc3)cc(-c3ccco3)c(C#N)c2=O)C(OC(C)=O)C(OC(C)=O)C1OC(C)=O (stereo not drawn) | > 50 | > 50 | > 50 | > 50 | > 50 |  |
| Nc1ccc(Cl)cc1.Nc1ccc(Cl)cc1.Nc1ccc(Cl)cc1.O=C([O-])C(=O)[O-].O=C([O-])C(=O)[O-].[H+].[Ru+5] | > 100 | > 100 | > 100 |  | > 100 | GI50 (LXFL 529 NSCLC): < 0.0272 µM; GI50 (HOP-18 NSCLC): > 100 µM; GI50 (DMS 114 small cell lung): 0.23 µM; GI50 (DLD-1 colon): > 43.5 µM |
| COc1ccc(NC(=O)CC(=O)n2nc(-c3ccccc3)c(N=Nc3ccc(C)cc3)c2-c2ccccc2)cc1 | > 100 | > 100 | > 78.3 | > 80.1 | > 100 | TGI (PC-3 prostate): > 57.9 µM; TGI (MDA-N): > 100 µM; TGI (HS 578T breast): 60.7 µM; TGI (MCF7 breast): > 85.2 µM |
